Laboratory results: patent US20040142888A1, “Modulators of RabGGT and methods of use thereof” (priority 2002, published 2004)

Tests used:
[1] = target: Farnesyl Transferase (FT) (Homo sapiens, UniProt P49354+P49356); test: Biochemical assay for inhibition of farnesyl transferase (FT)
Protocol: Biochemical assays for inhibition of FT were performed as described by Mann et al. (1995, Drug Dev. Res. 34: 121) with the modifications described by Ding et al. (1999, J. Med. Chem., 42:5241)

C. elegans germline = test: Apoptosis in the C. elegans germline (apoptotic corpses per germline arm), after compound and/or RNAi treatment; assay type: in vivo; conditions: wild-type worms, compound 1.5 mM
Protocol: The compounds were applied to early larval and adult C. elegans hermaphrodites by mixing a concentrated DMSO solution of the compound with heat-killed OP50 bacteria in a salt solution. The bacteria were then applied to agar plates and worms of the appropriate age seeded onto the plates. Compounds 7A, 7B, 7C, 7D, 7H, 7I and 7J were applied to worms at a final concentration of 1.5 mM. and the resulting visible phenotypes analyzed. The phenotype of apoptosis in C. elegans was quantified as follows: Germ cells in the C. elegans hermaphrodite gonad progress through various stages of differentiation to become mature ova. At the pachytene stage of meiotic prophase, some germ cells undergo programmed cell death (apoptosis) as part of normal development. The apoptotic corpses resulting from this process can be visualized by high-resolution Nomarski optics and are readily distinguishable cells to the trained eye from viable germ cells by their compact, button-like appearance. Necrotic cells, which are rarer, have a less compact appearance. Apoptosis is most reliably distinguished from necrosis, however, by its requirement for the core apoptotic machinery, such as a functional caspase/ced-3 gene. Since C. elegans has symmetrical anterior and posterior gonad structures, referred to as “arms”, apoptosis is scored by visually counting the apoptotic corpses present in a 1-2 day old adult in each germline arm. Normal, untreated worms rarely contain more than 2 corpses per arm. In a treated sample, the number of worms that contain more than 2 corpses provides a very accurate indicator of the apoptotic effect of the treatment. Early larval and adult C. elegans hermaphrodites were treated with compound and the phenotype of apoptosis in the germline arm was quantified as described in Example IV. DNA encoding GGTase alpha/[…].2 (GenBank entry NM-067966) and GGTase beta/B0280.1 (GenBank entry NM 066158) was amplified from a C. elegans genomic DNA template by PCR (Takara LA Taq DNA polymerase) using oligonucleotides containing gene-specific priming sequences that were flanked by sequences encoding the T7 polymerase priming site. The gene-specific priming sequences targeted the first 5 exons of B0280.1 (product size 2 kiloBases) and the first four exons of […].2 (product size 1 kiloBases). The PCR products were analyzed by gel electrophoresis to confirm that the correct product size was obtained. RNA was transcribed from the PCR product using the MEGAscript High Yield Transcription Kit (Ambion) according to manufacturer's instructions. Directly after transcription, the RNA was annealed by heating to 68° C. for 20 minutes. The double stranded RNA (dsRNA) was checked for product quality by gel electrophoresis. The dsRNA was then ethanol-precipitated, washed once with 100% ethanol and twice with 70% ethanol and the pellet was allowed to air dry for 30 minutes. The dsRNA was re-suspended in 1× IM buffer (20 mM KPO4, 3 mM potassium citrate, 2% PEG 6000) in volume equal to the original in vitro transcription reaction, and stored at -20° C. For RNAi treatment of worms, wild type animals at the L2/L3 stage of development were collected in M9 buffer at 50 animals/μl (M9 is 0.044 M KH2PO4, 0.085 M Na2HPO4, 0.18 M NaCl and 1 mM MgSO4). 1 μl of this nematode suspension was added to 3 μl of dsRNA and incubated for 24 hours in a sealed 96 well plate at 20° C. in a humidified chamber. Animals were allowed to develop to adulthood before compound treatment and/or assay of germline apoptosis as described in Example IV. Early larval and adult C. elegans hermaphrodites were treated with compound as described in Example IV. RNAi preparation and treatment was performed as described in Example VI. The phenotype of apoptosis in the germline arm was quantified as described in Example IV. Early larval and adult C. elegans hermaphrodites were treated with compound as described in Example IV. RNAi preparation and treatment was performed as described in Example VI. […]

SMILES	IC50 [1] [nM]	IC90 [1] [nM]	% arms with >2 corpses (C. elegans germline) [%]	Corpses/germline arm, mean (C. elegans germline)	Frequency: germline arms with 0 apoptotic corpses (C. elegans germline)	Frequency: germline arms with 1 apoptotic corpse (C. elegans germline)	Frequency: germline arms with 2 apoptotic corpses (C. elegans germline)	Frequency: germline arms with 3 apoptotic corpses (C. elegans germline)	Frequency: germline arms with 4 apoptotic corpses (C. elegans germline)	Frequency: germline arms with >4 apoptotic corpses (C. elegans germline)	effect on mean number of apoptotic corpses in the germline (C. elegans germline)
COc1ccc(S(=O)(=O)N2Cc3cc(C#N)ccc3N(Cc3cnc[nH]3)C[C@H]2Cc2ccccc2)cc1 [Compound 7A]	2.4	30	36	2.0	1	4	2	3	0	1	increasing the mean number of apoptotic corpses in the germline
N#Cc1ccc2c(c1)CN(S(=O)(=O)N1CCCCC1)[C@H](Cc1ccccc1)CN2Cc1cnc[nH]1 [Compound 7B]	7.8	110	92	6.9	0	0	1	1	0	10	–
CCCS(=O)(=O)N1Cc2cc(C#N)ccc2N(Cc2cnc[nH]2)C[C@H]1Cc1ccccc1 [Compound 7H]	4.1	360	29	1.6	5	4	–	3	2	0	increasing the mean number of apoptotic corpses in the germline
COc1ccc(S(=O)(=O)N2Cc3cc(C#N)ccc3N(Cc3cncn3C)C[C@H]2Cc2ccccc2)cc1 [Compound 7I]	1.4	11	33	2.3	1	3	3	1	2	1	increasing the mean number of apoptotic corpses in the germline
Cn1cncc1CN1C[C@@H](Cc2ccccc2)N(S(=O)(=O)c2cccs2)Cc2cc(C#N)ccc21 [Compound 7J]	0.8	7	59	2.8	3	4	1	4	4	3	increasing the mean number of apoptotic corpses in the germline
